Key:
[1] = target: T1, Porcine Pancreas Lipase (PPL) (Sus scrofa, UniProt P00591); experiment: Inhibition of lipase activity assay in vitro; format: biochemical; details: for inhibition at 6.25 µg/mL / inhibition at 12.5 µg/mL / inhibition at 25 µg/mL / inhibition at 50 µg/mL / inhibition at 100 µg/mL / inhibition at 200 µg/mL: read-out: Inhibition Percentage (%)
T1 sequence (P00591 1-450): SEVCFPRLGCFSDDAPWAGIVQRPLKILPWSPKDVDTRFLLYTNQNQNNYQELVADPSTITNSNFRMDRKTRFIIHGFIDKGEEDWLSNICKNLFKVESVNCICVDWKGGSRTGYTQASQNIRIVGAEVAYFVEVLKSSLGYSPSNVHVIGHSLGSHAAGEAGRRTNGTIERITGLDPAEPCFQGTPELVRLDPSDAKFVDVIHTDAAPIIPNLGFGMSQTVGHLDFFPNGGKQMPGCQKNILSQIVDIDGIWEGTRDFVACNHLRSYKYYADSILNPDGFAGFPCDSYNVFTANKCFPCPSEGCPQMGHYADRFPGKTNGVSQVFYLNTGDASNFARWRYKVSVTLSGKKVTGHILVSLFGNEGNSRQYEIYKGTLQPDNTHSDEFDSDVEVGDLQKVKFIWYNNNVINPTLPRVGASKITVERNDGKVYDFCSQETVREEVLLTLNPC

[2] = test system: gastrointestinal and pancreatic lipases; details: ref Guercioloni, 1997; Bellinger and Peikin, 2002; Othman et al., 2021; cited from earlier work

| SMILES | IC50 [1] [µM] | inhibition at 6.25 µg/mL [1] [%] | inhibition at 12.5 µg/mL [1] [%] | inhibition at 25 µg/mL [1] [%] | inhibition at 50 µg/mL [1] [%] | inhibition at 100 µg/mL [1] [%] | inhibition at 200 µg/mL [1] [%] | prevention of absorption of dietary fat [2] |
| --- | --- | --- | --- | --- | --- | --- | --- | --- |
| Cn1c(=O)c2c(ncn2C)n(C)c1=O [Compound 2, caffeine] | 80.3 | 34 | 38.6 | 64.6 | 76.2 | 81.4 | 83.9 |  |
| O=C(/C=C/c1ccc(O)c(O)c1)O[C@@H]1C[C@](O)(C(=O)O)C[C@@H](O)[C@H]1O [Compound 3, Chlorogenic acid] | 33.6 | 29.4 | 59.2 | 64.2 | 77.6 | 86.7 | 89.6 |  |
| CCCCCCCCCCC[C@@H](C[C@@H]1OC(=O)[C@H]1CCCCCC)OC(=O)[C@H](CC(C)C)NC=O [Orlistat] |  | 50.6 | 52.4 | 55.6 | 77.3 | 89.4 | 93.3 | approximately 30% |

From PMC8350192 (Heliyon, 2021)
